Test results as given in PMC9230201, “Sustained Consumption of a Decaffeinated Green Coffee Nutraceutical Has Limited Effects on Phenolic Metabolism and Bioavailability in Overweight/Obese Subjects” (Nutrients, 2022).

Assays:
[1] = Urinary excretion of phenolic metabolites after intake of the GCPE nutraceutical; conditions: for Cumulative urinary excretion, Total 0–24 h / Urinary excretion: urine; for Cumulative urinary excretion, Total 0–24 h: mean ± SEM, n = 9
Experimental: (§1) Participants attended the Human Nutrition Unit (HNU) at the Institute of Food Science, Technology and Nutrition (ICTAN-CSIC) on two consecutive days at the beginning of the intervention (week 0) and also on two consecutive days at the end of the study, after consuming daily two doses of the GCPE nutraceutical, providing 600 mg/d phenols, during two months (week 8). […] A licensed health care professional placed an intravenous catheter in the subjects′ nondominant arm and collected a fasting blood sample (baseline, 0 h). Then, subjects drank the soluble GCPE nutraceutical dissolved in 200 mL of water. […] On the sampling days, volunteers remained at the HNU, where a (poly)phenol-free diet was provided. Half an hour after consuming the nutraceutical, volunteers ate a breakfast consisting of ham, cheese, white bread, and a yogurt. Lunch (paella, bread, and yogurt) and an afternoon snack (muffin and yogurt) were eaten 5 and 9 h, respectively, after consuming the nutraceutical. Water and isotonic beverages were freely available. […] The same protocol was followed during visits at the end of the 8-week intervention. On each occasion, two days before each visit to the HNU, subjects consumed a low (poly)phenol diet free of foods containing hydroxycinnamates such as coffee, herbal teas, red wine, artichokes, whole grain cereals, vegetables, fruits and fruit juices, and dried fruits. Only banana, watermelon, cantaloupes, and potatoes were allowed.
(§2) Blood samples were immediately centrifuged (10 min, 3000 rpm, 4 °C) to obtain plasma. […] All biological samples were stored at −80 °C until analysis.
(§3) To extract plasma metabolites, 10 µL of 50% (v/v) aqueous formic acid, and 900 µL cold acetonitrile containing 50 µL of 10% (w/v) ascorbic acid were added to 400 µL defrosted plasma. Samples were vortexed and centrifuged (14,000 rpm, 10 min, 4 °C), repeating the extraction and combining the two supernatants, which were reduced to dryness under nitrogen [13]. Dried samples were resuspended in 150 µL of 0.1% aqueous formic acid (containing 10% acetonitrile acidified with 0.1% formic acid), centrifuged (15 min, 14,000 rpm, 4 °C), and the supernatant collected. Urine samples were diluted 1:1 with Milli-Q water and centrifuged (14,000 rpm, 20 min, 4 °C) prior to analysis. Phosphate-buffered saline (3 mL) was added to a representative 300 mg sample of thawed feces, homogenized in an ultrasound bath during 10 min, centrifuged (14,000 rpm, 20 min, 4 °C), and the supernatants collected.
(§4) Mobile phase A was 0.1% formic acid in Milli-Q water, and mobile phase B was acetonitrile containing 0.1% formic acid at a 0.3 mL/min flow rate. […] Metabolites were identified based on their retention time using authentic standards when possible. […] Urine concentration of excreted metabolites was normalized to the total volume excreted in each studied interval.
(§5) Plasma (30 µL), urine (5 µL) and fecal extracts (5 µL) were filtered through 0.45 µm
(§6) cellulose-acetate membrane filters and injected into an Agilent 1200 series LC system
(§7) ESI-Jet Stream Technology (Agilent Technologies). A reverse-phase Ascentis Express
(§8) C18 (15 cm x 3 mm, 2.7 µm) column (Sigma-Aldrich Quimica, Madrid), preceded by a
(§9) phase A was 0.1% formic acid in Milli-Q water, and mobile phase B was acetonitrile
(§10) containing 0.1% formic acid at a 0.3 mL/min flow rate. The gradient started with 10% B
(§11) at 0 min, 30% B at 10 min, 40% B at 15 min, reaching 50% B at 20 min. The starting
(§12) gradient was then re-established in 2 min and maintained for 8 min to re-equilibrate the

[2] = Plasma pharmacokinetics of phenolic metabolites after intake of the GCPE nutraceutical (LC-MS-QToF); conditions: for AUC(0-t) / Tmax: 300 mg hydroxycinnamic acids; for AUC(0-t): AUC0–24h; for Tmax: Tmax (h) or Range; for Cmax: mean ± SEM, n = 9
[3] = Fecal excretion of phenolic metabolites after intake of the GCPE nutraceutical; conditions: feces
Experimental: as §1, §2, §3, §4, §5, §6, §7, §8, §9, §10, §11, §12

[4] = human, oral, week 0, first peak where biphasic
[5] = human, oral, week 8, first peak where biphasic
[6] = human, oral, 300 mg, Cmax, week 0, GCPE nutraceutical with 300 mg hydroxycinnamic acids
[7] = human, oral, 300 mg, Cmax, week 8, GCPE nutraceutical with 300 mg hydroxycinnamic acids
[8] = week 0, GCPE nutraceutical with 300 mg hydroxycinnamic acids
[9] = week 0, first peak where biphasic
[10] = week 8, GCPE nutraceutical with 300 mg hydroxycinnamic acids
[11] = week 8, first peak where biphasic
[12] = week 8, listed as 3′-hydroxyphenylacetic acid

Structure (SMILES) | Cumulative urinary excretion, Total 0–24 h ([1]; week 0) | Cumulative urinary excretion, Total 0–24 h ([1]; week 8) | Amount excreted in urine, 0- 3 h ([1]; week 0, interval 0–3 h) | Amount excreted in urine, 3-6 h ([1]; week 0, interval 3–6 h) | Amount excreted in urine, 6-9 h ([1]; week 0, interval 6–9 h) | Amount excreted in urine, 9-11 h ([1]; week 0, interval 9–11 h) | Amount excreted in urine, 11-24 h ([1]; week 0, interval 11–24 h) | Amount excreted in urine, 0- 3 h ([1]; week 8, interval 0–3 h) | Amount excreted in urine, 3-6 h ([1]; week 8, interval 3–6 h) | Amount excreted in urine, 6-9 h ([1]; week 8, interval 6–9 h) | Amount excreted in urine, 9-11 h ([1]; week 8, interval 9–11 h) | Amount excreted in urine, 11-24 h ([1]; week 8, interval 11–24 h) | Amount of fecal metabolite excreted at 0 h ([3]; week 0, mean ± SEM, n = 9) | Amount of fecal metabolite excreted at 0 h ([3]; week 8) | Amount of fecal metabolite excreted at 24 h ([3]; week 0) | Amount of fecal metabolite excreted at 24 h ([3]; week 8) | AUC0–24h ([2]; week 0) | Cmax [2, 8] | Tmax (h) or Range [2, 9] | AUC0–24h ([2]; week 8) | other results
O=C(O)c1cccc(O)c1 [3-Hydroxybenzoic acid] | 0.91 ± 0.07 µmol | 1.0 ± 0.1 µmol | 0.09 ± 0.02 µmol | 0.05 ± 0.01 µmol | 0.08 ± 0.02 µmol | 0.064 ± 0.009 µmol | 0.26 ± 0.02 µmol | 0.1 ± 0.01 µmol | 0.06 ± 0.01 µmol | 0.11 ± 0.02 µmol | 0.07 ± 0.02 µmol | 0.19 ± 0.04 µmol | 0.03 ± 0.02 µmol/g | 0.020 ± 0.008 µmol/g | 0.03 ± 0.01 µmol/g | 0.020 ± 0.007 µmol/g |  |  |  |  | AUC(0-t) ([2]; human, oral, week 0): 0.7 ± 0.3 µM·h; AUC(0-t) ([2]; human, oral, week 8): 0.8 ± 0.3 µM·h; Tmax [2, 4]: 8 ± 1 h; Tmax [2, 5]: 4 ± 1 h; Cmax [2, 6]: 80 ± 20 nM; Cmax [2, 7]: 100 ± 30 nM
O=C(O)Cc1cccc(O)c1 [3′-Hydroxyphenylacetic acid] | 12 ± 3 µmol | 9 ± 2 µmol | 1.6 ± 0.5 µmol | 1 ± 0.2 µmol | 0.8 ± 0.2 µmol | 0.53 ± 0.09 µmol | 2.5 ± 0.7 µmol | 1 ± 0.2 µmol | 0.7 ± 0.2 µmol | 0.7 ± 0.1 µmol | 0.6 ± 0.2 µmol | 1.8 ± 0.6 µmol | 0.31 ± 0.09 µmol/g | 0.18 ± 0.08 µmol/g | 0.21 ± 0.08 µmol/g | 0.11 ± 0.04 µmol/g | 2.6 ± 0.9 µM/min | 200 ± 70 nM | 8 ± 2 h | 1.6 ± 0.6 µM/min | Amount excreted in urine, TOTAL ([1]; week 0, Table S5 total): 12 ± 3 µmol; Cmax [2, 10]: 150 ± 50 nM; Tmax (h) or Range [2, 11]: 5 ± 1 h; Amount of fecal metabolite excreted at 0 h ([3]; week 0, mean ± SEM, n = 9, listed as 3′-hydroxyphenylacetic acid): 0.31 µmol/g; Amount of fecal metabolite excreted at 0 h [3, 12]: 0.18 µmol/g; Amount of fecal metabolite excreted at 24 h ([3]; week 0, listed as 3′-hydroxyphenylacetic acid): 0.21 µmol/g; Amount of fecal metabolite excreted at 24 h [3, 12]: 0.11 µmol/g
COc1cc(/C=C/C(=O)OC2[C@H](O)CC(O)(C(=O)O)C[C@H]2O)ccc1O (some centres unmarked) [4-Feruloylquinic acid] | 0.4 ± 0.2 µmol | 0.4 ± 0.1 µmol | 0.2 ± 0.1 µmol | 0.15 ± 0.05 µmol | 0.02 ± 0.01 µmol | 0.003 ± 0.002 µmol |  | 0.21 ± 0.08 µmol | 0.13 ± 0.03 µmol | 0.03 ± 0.01 µmol |  | 0.02 ± 0.02 µmol |  | 0.001 ± 0.001 µmol/g |  | 0.0004 ± 0.0004 µmol/g | 0.06 ± 0.01 µM/min | 29 ± 4 nM | 0.9 ± 0.1 h | 0.07 ± 0.01 µM/min | Cmax [2, 10]: 31 ± 4 nM; Tmax (h) or Range [2, 11]: 0.9 ± 0.1 h
COc1cc(C(=O)O)ccc1O [4-Hydroxy-3-methoxybenzoic acid] |  |  |  |  |  |  |  |  |  |  |  |  | 0.06 ± 0.03 µmol/g | 0.006 ± 0.006 µmol/g |  |  |  |  |  |  | AUC(0-t) ([2]; human, oral, week 0): 9 ± 2 µM·h; AUC(0-t) ([2]; human, oral, week 8): 14 ± 4 µM·h; Tmax [2, 4]: 7 ± 3 h; Tmax [2, 5]: 7 ± 2 h; Cmax [2, 6]: 1100 ± 200 nM; Cmax [2, 7]: 1600 ± 400 nM
O=C(O)c1ccc(O)cc1 [4-Hydroxybenzoic acid] | 1.3 ± 0.2 µmol | 1.01 ± 0.09 µmol | 0.3 ± 0.2 µmol | 0.11 ± 0.02 µmol | 0.1 ± 0.02 µmol | 0.09 ± 0.01 µmol | 0.29 ± 0.04 µmol | 0.14 ± 0.02 µmol | 0.1 ± 0.01 µmol | 0.09 ± 0.02 µmol | 0.08 ± 0.02 µmol | 0.26 ± 0.03 µmol | 0.004 ± 0.004 µmol/g | 0.006 ± 0.004 µmol/g | 0.0006 ± 0.0004 µmol/g | 0.01 ± 0.01 µmol/g |  |  |  |  | Urinary excretion ([1]; week 0): 1.3 µmol/24 h; Urinary excretion ([1]; week 8): 1.01 µmol/24 h; AUC(0-t) ([2]; human, oral, week 0): 0.9 ± 0.2 µM·h; AUC(0-t) ([2]; human, oral, week 8): 0.5 ± 0.2 µM·h; Tmax [2, 4]: 7 ± 2 h; Tmax [2, 5]: 5 ± 3 h; Cmax [2, 6]: 90 ± 10 nM; Cmax [2, 7]: 80 ± 10 nM
COc1cc(CC(=O)O)ccc1O [4′-Hydroxy-3′-methoxyphenylacetic acid] | 13.2 ± 0.9 µmol | 12 ± 1 µmol | 1.3 ± 0.2 µmol | 0.9 ± 0.2 µmol | 0.9 ± 0.2 µmol | 0.7 ± 0.1 µmol | 3.6 ± 0.3 µmol | 1.5 ± 0.2 µmol | 0.8 ± 0.1 µmol | 1 ± 0.2 µmol | 0.68 ± 0.15 µmol | 2.9 ± 0.7 µmol | 0.007 ± 0.005 µmol/g | 0.0006 ± 0.0006 µmol/g | 0.02 ± 0.01 µmol/g | 0.003 ± 0.003 µmol/g | 1.4 ± 0.9 µM/min | 140 ± 60 nM | 7 ± 4 h | 1.5 ± 0.8 µM/min | Cmax [2, 10]: 120 ± 50 nM; Tmax (h) or Range [2, 11]: 4 ± 3 h
COc1cc(/C=C/C(=O)O[C@@H]2C[C@@](O)(C(=O)O)C[C@@H](O)[C@@H]2O)ccc1O [5-Feruloylquinic acid] | 1.5 ± 0.2 µmol | 1.5 ± 0.2 µmol | 0.8 ± 0.2 µmol | 0.5 ± 0.1 µmol | 0.13 ± 0.04 µmol | 0.03 ± 0.01 µmol | 0.09 ± 0.01 µmol | 0.8 ± 0.1 µmol | 0.39 ± 0.07 µmol | 0.2 ± 0.04 µmol | 0.05 ± 0.03 µmol | 0.08 ± 0.02 µmol | 0.0009 ± 0.0007 µmol/g | 0.002 ± 0.002 µmol/g | 0.002 ± 0.001 µmol/g | 0.0003 ± 0.0003 µmol/g | 0.09 ± 0.02 µM/min | 32 ± 4 nM | 0.9 ± 0.1 h | 0.08 ± 0.02 µM/min | Cmax [2, 10]: 34 ± 5 nM; Tmax (h) or Range [2, 11]: 0.9 ± 0.1 h
O=C(O)CCc1ccc(O)cc1 [DHCoA, 3-(4′-Hydroxyphenyl)propanoic acid] | 4 ± 1 µmol | 6 ± 2 µmol | 0.16 ± 0.04 µmol | 0.09 ± 0.02 µmol | 0.5 ± 0.2 µmol | 0.6 ± 0.2 µmol | 1.4 ± 0.4 µmol | 0.4 ± 0.2 µmol | 0.3 ± 0.1 µmol | 0.9 ± 0.3 µmol | 0.8 ± 0.3 µmol | 1 ± 0.2 µmol | 0.005 ± 0.003 µmol/g | 0.006 ± 0.006 µmol/g | 0.005 ± 0.005 µmol/g | 0.014 ± 0.005 µmol/g |  |  |  |  | Urinary excretion ([1]; week 0): 4 µmol/24 h; Urinary excretion ([1]; week 8): 6 µmol/24 h
